Source: the supplement of paper PMC7840683

System: HepaRG
Assay: LDH release cytotoxicity, % of total lysis control; higher = more cytotoxic
Conditions: 48 h
Summary of the method: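 Single-lot HepaRG cells on collagen I-coated 96-well plates were exposed for 48 h in duplicate, in serum-free induction medium with 0.5% DMSO, to eight-point half-log series (test chemicals top 100 µM). Total lysis wells received 0.1% Triton X, and LDH leakage into 50 µL spent medium was read as resorufin fluorescence (CytoTox-ONE, Tecan Safire). Percent cytotoxicity was normalized to on-plate vehicle and total lysis controls and averaged over the duplicates.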

Cc1cc(F)ccc1-c1cc(N2CCC(O)C2CO)ncc1N(C)C(=O)C(C)(C)c1cc(C(F)(F)F)cc(C(F)(F)F)c1 (stereo not given)
Conditions	LDH release cytotoxicity [%]
0.02577 µM	-0.371
0.0815 µM	-1.04
0.2577256 µM	-1.11
0.815 µM	-0.898
2.57726 µM	-1.2
8.15 µM	-1.08
25.7726 µM	12.91
81.5 µM	86.4

CN(C)C(=O)C1(N2CCCCC2)CCN(CCC2(c3ccc(Cl)c(Cl)c3)CN(C(=O)c3ccccc3)CCO2)CC1 (stereo not given)
Conditions	LDH release cytotoxicity [%]
0.02988 µM	-0.742
0.0945 µM	-0.252
0.298835 µM	-0.7
0.945 µM	-0.736
2.98835 µM	-0.21
9.45 µM	0.674
29.8835 µM	69.1
94.5 µM	85.4

CN(C)C(=O)NC1(c2ccccc2)CCN(CCC2(c3ccc(F)c(F)c3)CN(C(=O)c3ccccc3)CCO2)CC1 (stereo not given)
Conditions	LDH release cytotoxicity [%]
0.0297254 µM	-1.81
0.094 µM	-1.79
0.297254 µM	-2.55
0.94 µM	-1.66
2.97254 µM	-1.69
9.4 µM	-1.59
29.72541 µM	0.14
94 µM	13.5

CN(C)C(=O)NC1(c2ccccc2)CCN(CCCC2(c3ccc(Cl)c(Cl)c3)CCCN(C(=O)c3ccccc3)C2)CC1 (stereo not given)
Conditions	LDH release cytotoxicity [%]
0.0079057 µM	0.117
0.025 µM	-1.98
0.0790569 µM	-1.74
0.25 µM	-1.65
0.790569 µM	-1.74
2.5 µM	-1.23
7.90569 µM	-0.502
25 µM	77

CN(CC(CC[N+]12CCC(C3CCCCC3)(CC1)CC2)c1ccc(Cl)c(Cl)c1)C(=O)c1cc(C(F)(F)F)cc(C(F)(F)F)c1 (stereo not given)
Conditions	LDH release cytotoxicity [%]
0.03162 µM	-0.117
0.1 µM	-0.956
0.3162278 µM	-1.24
1 µM	-1.39
3.16228 µM	-1.45
10 µM	1.28
31.6228 µM	57.3
100 µM	84.4

Cn1c(=O)cc(Oc2ccc(F)cc2F)c2cnc(NCC(C)(C)O)nc21
Conditions	LDH release cytotoxicity [%]
0.03162 µM	-1.61
0.1 µM	-1.64
0.3162278 µM	-0.855
1 µM	-0.86
3.16228 µM	-1.12
10 µM	-1.19
31.6228 µM	-0.929
100 µM	-1.1

CN1C(=O)N(c2ccccc2Br)Cc2cnc(Nc3ccc4c(c3)OCC(CO)O4)nc21 (stereo not given)
Conditions	LDH release cytotoxicity [%]
0.03162 µM	0.454
0.1 µM	-0.735
0.3162278 µM	-1.07
1 µM	-1.37
3.16228 µM	-0.0336
10 µM	0.443
31.6228 µM	8.29
100 µM	63.4

CNCc1ccc(NC(=O)c2c[nH]c3c2C(=O)CCC3)cc1
Conditions	LDH release cytotoxicity [%]
0.03162 µM	-1.87
0.1 µM	-0.925
0.3162278 µM	-1.24
1 µM	-1.23
3.16228 µM	-1.06
10 µM	-0.719
31.6228 µM	-0.723
100 µM	-1.06

CNS(=O)(=O)c1cc(C(=O)N2CCC(CCN3C4CCC3CC(n3c(C)nc5ccccc53)C4)(c3cccc(F)c3)CC2)c(Cl)cc1F (stereo not given)
Conditions	LDH release cytotoxicity [%]
0.03162 µM	-1.92
0.1 µM	-0.773
0.3162278 µM	-1.36
1 µM	-1.37
3.16228 µM	-1.08
10 µM	-0.27
31.6228 µM	10.5
100 µM	23.1

COc1cc(C(=O)NC2CCN(C)CC2)ccc1Nc1ncc2c(n1)N(C1CCCC1)CC(F)(F)C(=O)N2C
Conditions	LDH release cytotoxicity [%]
0.02941 µM	-0.558
0.093 µM	1.88
0.294092 µM	6.47
0.93 µM	10.3
2.9409182 µM	9.21
9.3 µM	12.6
29.4092 µM	88.1
93 µM	90.9

COc1cc(-c2nc(NC(=O)c3cc4cc(C)cc(C)c4n3CC(=O)O)sc2CCC2CCCCC2)c(OC)cc1Cl
Conditions	LDH release cytotoxicity [%]
0.0267212 µM	0.271
0.0845 µM	-0.13
0.267213 µM	-0.107
0.845 µM	0.419
2.67212 µM	-0.184
8.45 µM	37.3
26.7212 µM	67.7
84.5 µM	78.3

COc1cc(C(C)C)c2c(c1)S(=O)(=O)N(COc1cc(=O)n3cccc(OCCN4CCCCC4)c3n1)C2=O
Conditions	LDH release cytotoxicity [%]
0.0079057 µM	0.0307
0.025 µM	0.0794
0.0790569 µM	0.357
0.25 µM	-0.592
0.790569 µM	-0.444
2.5 µM	-0.335
7.90569 µM	-0.231
25 µM	14.2

COc1ccc(C(=O)Nc2nc3ccccc3c(NCc3ccccc3)c2C#N)cc1
Conditions	LDH release cytotoxicity [%]
0.03162 µM	-1.06
0.1 µM	-0.452
0.3162278 µM	-0.037
1 µM	0.715
3.16228 µM	2.34
10 µM	2.97
31.6228 µM	4.87
100 µM	8.05

COc1ccc(C=CS(=O)(=O)NC(=O)c2ccc(C)cc2Cl)cc1
Conditions	LDH release cytotoxicity [%]
0.03162 µM	-1.21
0.1 µM	-1.99
0.3162278 µM	-1.66
1 µM	-1.597
3.16228 µM	-1.41
10 µM	-1.42
31.6228 µM	-0.383
100 µM	1.21

COc1cccc(-c2ccc(C=CCN3CCCCCC3)cc2Cl)c1
Conditions	LDH release cytotoxicity [%]
0.0286186 µM	-0.404
0.0905 µM	-2.18
0.2861861 µM	-2.02
0.905 µM	-1.85
2.86186 µM	-1.3
9.05 µM	-0.654
28.618613 µM	0.285
90.5 µM	71.6

COCc1nnc(-c2ccc[n+]([O-])c2)n1-c1c(Cl)c(Cl)cc2[nH]c(=O)c(=O)[nH]c12
Conditions	LDH release cytotoxicity [%]
0.03162 µM	-1.68
0.1 µM	-1.55
0.3162278 µM	-2.04
1 µM	-2.82
3.16228 µM	-2.03
10 µM	-1.6
31.6228 µM	-1.69
100 µM	-0.641

COc1ccc2cc(S(=O)(=O)NC(CC(=O)NC(Cc3ccc(CN4C(C)CCCC4C)cc3)C(=O)N(C)C(C)C)c3ccc4c(c3)OCO4)ccc2c1 (stereo not given)
Conditions	LDH release cytotoxicity [%]
0.0301998 µM	-0.793
0.0955 µM	-1.98
0.301997 µM	-1.26
0.955 µM	-1.65
3.01998 µM	-1.13
9.55 µM	1.45
30.199752 µM	70.28
95.5 µM	80.2

Cc1ncc(C(CCCCCCc2ccc3c(n2)NCCC3)CC(=O)O)cn1 (stereo not given)
Conditions	LDH release cytotoxicity [%]
0.03162 µM	-1.55
0.1 µM	-1.82
0.3162278 µM	-1.74
1 µM	-2.04
3.16228 µM	-1.49
10 µM	-1.25
31.6228 µM	-1.33
100 µM	0.986

Clc1cc(Cl)c2c(c1)N=C1CCCCCN1C2
Conditions	LDH release cytotoxicity [%]
0.03162 µM	-2.23
0.1 µM	-1.38
0.3162278 µM	-0.748
1 µM	-1.45
3.16228 µM	-1.34
10 µM	1.41
31.6228 µM	1.58
100 µM	3.36

O=C(NS(=O)(=O)C=Cc1cccs1)c1ccc(F)cc1Br
Conditions	LDH release cytotoxicity [%]
0.03162 µM	-1.33
0.1 µM	-1.47
0.3162278 µM	-1.39
1 µM	-2.27
3.16228 µM	-1.8
10 µM	-1.418
31.6228 µM	-0.73
100 µM	-0.319

O=C(NS(=O)(=O)C=Cc1ccccc1)c1ccc(F)cc1Cl
Conditions	LDH release cytotoxicity [%]
0.03162 µM	-0.138
0.1 µM	-1.32
0.3162278 µM	-0.79
1 µM	-2.23
3.16228 µM	-1.4
10 µM	-0.621
31.6228 µM	-0.552
100 µM	1.91

O=C(Nc1ccc2[nH]ccc2c1)c1cc2cc(F)ccc2n1Cc1cccc(F)c1
Conditions	LDH release cytotoxicity [%]
0.02625 µM	-0.0757
0.083 µM	-0.934
0.262469 µM	-1.53
0.83 µM	-0.536
2.62469 µM	-0.9
8.3 µM	-0.744
26.2469 µM	8.37
83 µM	93.9

N#Cc1ccc(N(CC(N)=O)CC(F)(F)F)cc1C(F)(F)F
Conditions	LDH release cytotoxicity [%]
0.03162 µM	-0.784
0.1 µM	-0.777
0.3162278 µM	-1.03
1 µM	-1.38
3.16228 µM	-0.891
10 µM	0.346
31.6228 µM	-0.599
100 µM	-0.34

NC(=O)N(O)C1COc2cc(OCc3ccccc3)ccc21 (stereo not given)
Conditions	LDH release cytotoxicity [%]
0.02846 µM	-1.76
0.09 µM	-2.99
0.284605 µM	-1.03
0.9 µM	-2.27
2.84605 µM	-0.514
9 µM	0.238
28.4605 µM	3.46
90 µM	22.46

O=C(N[C@H](c1ccccc1)[C@@H]1CN2CCC1CC2)c1c(Cl)ccc(C(F)(F)F)c1Cl
Conditions	LDH release cytotoxicity [%]
0.0292511 µM	-0.907
0.0925 µM	-0.886
0.292511 µM	-1.02
0.925 µM	-1.22
2.9251068 µM	-0.0305
9.25 µM	1.38
29.251068 µM	16.1
92.5 µM	82.5

O=C1c2ccccc2C(=O)N1CCc1noc(-c2ccc(CN3CCCCCC3)s2)n1
Conditions	LDH release cytotoxicity [%]
0.026721 µM	1.83
0.0845 µM	-0.403
0.267212 µM	-0.399
0.845 µM	-0.205
2.67212 µM	-7.752
8.45 µM	7.6
26.7213 µM	1.47
84.5 µM	-1.5

O=C(O)c1cccc(N(Cc2cccnc2)c2ccc(OC(F)F)c(OC(F)F)c2)c1
Conditions	LDH release cytotoxicity [%]
0.03162 µM	-1.28
0.1 µM	-1.45
0.3162278 µM	-1.1
1 µM	-1.77
3.16228 µM	-1.858
10 µM	-2.03
31.6228 µM	-2.58
100 µM	-1.73

O=C(O)c1cccc(CC2COc3ccc(OCc4nc5cc(F)ccc5s4)cc3C2O)c1 (stereo not given)
Conditions	LDH release cytotoxicity [%]
0.03162 µM	-0.0534
0.1 µM	-0.136
0.3162278 µM	-0.338
1 µM	-1.53
3.16228 µM	-0.67
10 µM	-0.7031
31.6228 µM	0.475
100 µM	39.6

O=C(O)C1(c2ccc3c(c2)OCC(Cc2ccc(-c4ccccc4)cc2)C3O)CCCC1 (stereo not given)
Conditions	LDH release cytotoxicity [%]
0.03162 µM	-0.731
0.1 µM	-0.599
0.3162278 µM	-0.19
1 µM	-0.676
3.16228 µM	-0.648
10 µM	0.306
31.6228 µM	2.92
100 µM	72.9

Oc1ccc2c(c1)OCC(N1CCC(O)(c3ccc(F)cc3)CC1)C2O (stereo not given)
Conditions	LDH release cytotoxicity [%]
0.01581 µM	-1
0.05 µM	0.886
0.1581139 µM	0.0464
0.5 µM	0.111
1.5811388 µM	0.298
5 µM	0.5713
15.8114 µM	1.05
50 µM	0.322

OCC(CO)n1cnc(-c2ccc(F)cc2)c1-c1ccnc(Oc2ccccc2)n1
Conditions	LDH release cytotoxicity [%]
0.029093 µM	-1.79
0.092 µM	-1.44
0.29093 µM	-0.719
0.92 µM	-1.96
2.9092954 µM	-2.48
9.2 µM	-2.62
29.093 µM	0.252
92 µM	51.2

O=C(O)CCN(C1(C(=O)NO)CCCC1)S(=O)(=O)c1ccc(Oc2ccc(F)cc2)cc1
Conditions	LDH release cytotoxicity [%]
0.03162 µM	-0.305
0.1 µM	-1.01
0.3162278 µM	-0.589
1 µM	-0.176
3.16228 µM	-0.0966
10 µM	0.986
31.6228 µM	0.193
100 µM	1.19

O=C(NO)C1(NS(=O)(=O)c2ccc(Oc3ccc(F)cc3)cc2)CCOCC1
Conditions	LDH release cytotoxicity [%]
0.03162 µM	0.225
0.1 µM	-0.912
0.3162278 µM	-0.649
1 µM	-0.54
3.16228 µM	-0.318
10 µM	-0.00829
31.6228 µM	-1.25
100 µM	10.5

N#CC1CC(F)(F)CN1C(=O)CNC1CC2CCC(C1)N2c1ncccn1 (stereo not given)
Conditions	LDH release cytotoxicity [%]
0.03162 µM	-1.64
0.1 µM	-2.99
0.3162278 µM	-2.24
1 µM	-2.72
3.16228 µM	-2.06
10 µM	-1.96
31.6228 µM	-1.33
100 µM	-1.49

O=C(NC1CN2CCC1CC2)c1ccc2c(c1)OCCO2 (stereo not given)
Conditions	LDH release cytotoxicity [%]
0.03162 µM	-2.41
0.1 µM	-1.45
0.3162278 µM	-1.86
1 µM	-1.29
3.16228 µM	-1.81
10 µM	-1.38
31.6228 µM	-1.38
100 µM	0.204
